Data taken from patent publication US20130022590A1, “Compositions Comprising Zinc Finger Domains and Uses Therefor” (priority 2009, published 2013).

How the values were obtained:
[1] = system: ssRNA oligonucleotide containing a single AGGUAA site (GCAACCAGGUAAAGUCU, SEQ ID NO: 28); experiment: Fluorescence anisotropy titration, single-site ssRNA; assay type: binding; conditions: GST fusions; ssRNA with 5′ fluorescein tag and a single AGGUAA site; 25° C.
Method: (§1) Fluorescence Anisotropy titrations e.g., as shown in FIGS. 1D-F, 8 and 35, were carried out using standard protocols. In brief, 5′-Fluorescein-labeled RNA oligonucleotides were quantified by A260, correcting for fluorescein absorbance by using A493. For single-site experiments, the sequence GCAACCAGGUAAAGUCU (SEQ ID NO: 28), or single base mutants thereof, was used. For double-site experiments, two AGGUAA sites were separated by different length sequences as indicated, and the total oligonucleotide lengths were kept constant by the symmetrical addition of adenines to each end. […] Protein was titrated into this starting solution and anisotropy values measured on a Cary Eclipse fluorescence spectrophotometer fitted with manual polarizer and long-pass filters set to 475 and 515 nm for excitation and emission, respectively. […] Association constants were determined by nonlinear least squares regression analysis using a 1:1 binding model.
Constructs of the two individual domains, F1 (FIG. 2, residues 1-45) and F2 (FIG. 2, residues 65-95), were cloned expressed and purified as GST fusions described in section 1.2 above, and tested their ability to bind ssRNA by fluorescence anisotropy as described in section 1.5 above, using a ssRNA oligonucleotide bearing a 5′ fluorescein tag and containing a single AGGUAA site.

[2] = system: AGAUAA ssRNA; experiment: Fluorescence anisotropy binding assay, AGAUAA substrate; conditions: FIG. 19 and FIG. 20
Method: as §1
To determine whether changing arginine-82 (R82) would affect the binding preference of ZRANB2-F2 from GGU to GAU, the point mutation R82Q in ZNF 2 of ZRANB2 was made and the ability of both the wild type (W) protein and the R82Q mutant to bind to AGGUAA and AGAUAA was assessed by fluorescence anisotropy binding assays as described previously in Example 1.

[3] = system: short (6 or 10 nt) RNA oligonucleotides containing a single AGGUAA motif; experiment: NMR chemical-shift perturbation (15N-HSQC) RNA titration; assay type: binding; conditions: 15N-labeled F2
Method: In brief, F2 and F12 were dialysed into 25 mM potassium phosphate (pH 7.0), 25 mM NaCl, and 0.5 mM DTT and concentrated to 0.4-1 mM. All spectra were recorded on a Bruker Avance 600 spectrometer equipped with a cryoprobe. 1H, 15N, and 13C assignments were obtained from HNCACB, CB-CA(CO)NH, HCCH-TOCSY, NOESY, and TOCSY spectra acquired at 2° C., 5° C., or 25° C. Dihedral angle restraints were obtained by analysis of an HNHA spectrum as previously described in Vuister G. W. and Bax A. 1993 J Am Chem Soc 115: 7772-7777. NMR data were processed by using XWINNMR/Topspin (Bruker) and analyzed with SPARKY (T. D. Goddard and D. G. Kneller, University of California, San Francisco). The structure of F2 was calculated from NOE and Ø angle constraints (e.g., FIGS. 5 and 9C) by using a protocol as described in Plambeck C. A., et al., 2003 J Biol Chem 278: 22805-22811.
For RNA titrations, deprotected RNA oligonucleotides i.e., having the sequence AGGUAA, CCAGGUAAAG (SEQ ID NO: 25), or AGGUAAAGGUAA (SEQ ID NO: 26) and the appropriate protein were dialyzed into 10 mM Mops (pH 7.2) and 0.5 mM DTT. Protein and RNA concentrations were calculated from A280 and A260, respectively. Final concentrations of complexes after titrations were typically approximately 0.1-0.5 mM. Assignments of the F2:RNA complex (1:1 or 1:1.2 molar ratio) were made at 25° C. as described above. […]

Row | binding affinity to guanine base relative to adenine base at position 3 (AGGUAA vs AGAUAA) [2] | Substance | association constant [1] [M⁻¹] | complex formed on RNA titration [3]
1 | about 4 fold | F2: F2 zinc finger domain (residues 65-95 of human ZRANB2), wild type (SANDWQCKTCSNVNWARRSECNMCNTPKYAK; F2 zinc finger domain GST fusion in some uses; UniProt O95218 65-95, looked up, fragment) | 1e+06 | well-defined 1:1 complex
2 | – | F1: F1 zinc finger domain (residues 1-45 of human ZRANB2) (MSTKNFRVSDGDWICPDKKCGNVNFARRTSCNRCGREKTTEAKMM; F1 zinc finger domain GST fusion in some uses; UniProt O95218 1-45, looked up, fragment) | 3e+06 | –
